# Measurements as given in US20080070256A1, “Non-Human Animal Models for B-cell Non-Hodgkin's Lymphoma and Uses Thereof” (NATIONAL JEWISH MEDICAL AND RESEARCH CENTER, priority 2006, published 2008).
# Legend:
# [1] = system: tumors derived from Eμ-MYC mice; assay: In vivo drug candidate test, transplanted Eμ-MYC tumors (no surface BCR); parameters: species or system mouse; conditions: treated for 7 days, starting 21 days after transplant
# Source text: (§1) Cohorts of age and sex matched, syngeneic mice (C57/BL6) are given transplants of tumor cells administered by tail vein injection (inoculum ranges from 10^2-10^6 cells, but all of the mice in one cohort usually get the same dose of cells). The mice are observed daily for 14-21 days for presentation of externally evident clinical signs of hematological malignancies. These include splenomegaly and lymphadenopathy, dehydration, scruffy fur, hunched posture, labored breathing, and an ascending hind limb paralysis. When the mice are visibly sick, they begin treatment with the drug candidate. The mice are either analyzed 24 hours after the last dose of drug in order to ascertain the degree of remission caused by the drug, in an acute manner, or left in the vivarium to determine the extent of survival that is afforded by the treatment, over the normal rate of mortality for untreated, tumor-bearing mice.
# In this experiment, cohorts of 10 mice each were given transplants of tumors derived from Eμ-MYC mice.
# Raji cells [2] = assay: MTS viability assay on Raji cells; format: cell-based, human; conditions: increasing concentrations
# Method: (§2) The inventors obtained a highly specific pharmacological inhibitor of Syk through a collaboration with Rigel Pharmaceuticals. […] Also tested were the effects of the Syk kinase inhibitor on primary murine BL the inventors obtained from triply transgenic mice (Example 2). In addition, the effects of R408 were tested on three cell lines derived from human BL tumors (Raji, Ramos and Daudi). […] The cells and drug were incubated at a final volume of 200 μl in each well. Each condition was set up in triplicate wells, in any one experiment. […] The plates were read with a Molecular Dynamics ELISA plate reader, at OD 490. The data presented in FIGS. 29A-29D is from one experiment, representative of three independent assays. The error bars represent the standard deviations. […] The cells were cultured for 22 hours with the compound, and pulsed for the last 2 hours with MTS reagent. The O.D.490 absorbance of the wells was determined 24 hours after the beginning of the experiment. All conditions were tested in triplicate wells. The error bars represent the standard deviations of the triplicate wells.
# In order to validate the observations obtained in the mouse models of BL, the inventors tested whether the pharmacological inhibition of Syk in a human BL cell line (Raji) also results in the reduced viability of those cells. […]
# Raji cells [3] = assay: Apoptosis of Raji cells by propidium iodide stain (subdiploid population); format: cell-based, human; conditions: exposure in vitro
# Source text: In order to validate the observations obtained in the mouse models of BL, the inventors tested whether the pharmacological inhibition of Syk in a human BL cell line (Raji) also results in the reduced viability of those cells. […] Similar results are observed upon the shRNA-mediated disruption of Syk expression in Raji cells.
# [4] = system: murine BL cell lines (TBL-1, TBL-8, TBL-9, TBL-14); assay: MTS viability assay, murine BL cell lines; format: cell-based, mouse; conditions: 24 hours
# Method: as §2
# Using this approach, four primary tumors derived from Eμ-MYC/BCR^HEL/sHEL mice have been tested, three cell lines derived from such tumors (TBL-1, TBL-8 and TBL-14), as well as a T-cell lymphoma cell line (iTLS-10). […] The cells were incubated for an MTS assay as described elsewhere herein. […]
# [5] = system: tumors derived from Eμ-MYC/BCR^HEL/sHEL mice; assay: In vivo drug candidate test, transplanted murine BL tumors; parameters: species or system mouse; conditions: transient 7 day treatment, starting 20 days after transplant
# Source text: as §1
# In another experiment, depicted in FIG. 33, cohorts of 10 mice each were given transplants of tumors derived from Eμ-MYC/BCR^HEL/sHEL (resemble human BL) mice. 20 days later, when the mice presented externally evident signs of disease, they were treated for 7 days with R788. This cohort was observed over time for kinetics and time frame of mortality following transient treatment with R788.
# [6] = system: tumors derived from Eμ-MYC/BCR^HEL mice; assay: In vivo drug candidate test, transplanted murine B-CLL tumors; parameters: species or system mouse
# Source text: In this experiment, cohorts of 20 mice each were given transplants of tumors derived from Eμ-MYC/BCR^HEL (resemble human B-CLL) mice. […] Part of the cohort was euthanized and evaluated for remission acutely (left set of graphs).
# [7] = system: Eμ-MYC/BCR^HEL/sHEL tumors
# Method: (§3) Groups of 6 mice were utilized for each of the experimental protocols. Four mice bearing transplanted tumors, and two age and sex matched wild type mice were treated with the same drug and equal frequency. The transplant recipient mice were held until tumors became clinically apparent (approximately 100 days for the Eμ-MYC tumors, 58 days for the Eμ-MYC/BCR^HEL tumors, 21 days for the Eμ-MYC/BCR^HEL/sHEL tumors, and 14 days for the MMTV-rtTA/TRE-MYC/BCR^HEL/sHEL tumors). The mice then received daily injections of the indicated agents for 7 days, as applicable. Mice were either euthanized 24 hours after the last injection of drug, or held indefinitely to ascertain survival. Lymph nodes, spleens and bone marrows were collected and processed to generate single cell suspensions. The cells were counted as described above. An aliquot from the cell suspensions was stained with antibodies for B220, Thy 1.2, Mac-1, IgM^a, B7-2, and CD69, in order to determine the proportion of B-cells, T-cells and myeloid cells, as well as the activation status of the HEL-reactive B-cells. Treatments were performed with cyclosporin A (Bedford laboratories, Bedford Ohio) (2 mg/kg/day), FK506 (Prograf, Fujisawa Healthcare, Deerfield, Ill.) (2 mg/kg/day), rapamycin (Biomol, King of Prussia, Pa.) (2 mg/kg/day), and cyclophosphamide (1 mg/kg/day) (Bristol-Myers Squibb, Princeton, N.J.). The therapeutics were suspended in PBS, sterilized by filtration through a 0.22 μm membrane, and administered intravenously through the tail vein.
# (§4) 10^6 cells obtained from tumor-bearing spleen or lymph nodes were transplanted into cohorts of 4-10 mice. […] The tumor bearing and control wild-type mice were then treated daily for seven days with intravenous injections of the various drugs. Mice were either euthanized 24 hours after the last injection of drug, or held indefinitely to ascertain survival. The analysis of tumor burden was performed with cells obtained from lymph nodes and spleens.
# [8] = system: tumors from the jaws of MMTV-rtTA/TRE-MYC/BCR^HEL/sHEL mice; conditions: daily intravenous injections for 7 days
# Method: as §3, §4
# Eμ-MYC/BCR^HEL tumors = assay: Therapeutic trial on transplanted Eμ-MYC/BCR^HEL tumors (B-CLL model); format: in vivo, mouse; conditions: daily intravenous injections for 7 days
# Method: as §3, with “The therapeutics were suspended in PBS, sterilized by filtration through a 0.22 μm membrane, and administered intravenously through the tail vein.” left out
# [9] = system: MMTV-rtTA/TRE-MYC/BCR^HEL/sHEL tumors (FLL); conditions: mouse, in vivo
# Method: (§5) Tumor cells were harvested from lymph nodes and spleens and transplanted. The recipient mice were held until tumors became clinically apparent. Tumor recipient (clear bars) and wild type (filled bars) mice then received daily injections of the indicated drugs for 7 days of either cyclosporine A (csa), FK506, rapamycin (rap) or cyclophosphamide (cyph). The mice were euthanized 24 hours after the last injection of drug, and lymph nodes were harvested for analysis of either total number of cells or surface markers of donor cells (not shown).
# (§6) Tumor cells were harvested from lymph nodes and spleens and transplanted as described. The recipient mice were held until tumors became clinically apparent. The mice were then either maintained on a normal mouse diet, or switched on to a diet containing doxycycline, that shut off MYC overexpression. The mice were euthanized at the indicated times, and the lymph nodes were collected, used to generate single cell suspensions, cell counts and flow cytometric analysis.
# as §3, §4
# [10] = system: MMTV-rtTA/TRE-MYC/BCR^HEL/sHEL tumors (DLBCL); conditions: mouse, in vivo
# Method: as §5, §6, §3, §4
# [11] = system: Eμ-MYC, Eμ-MYC/BCR^HEL/sHEL and MMTV-rtTA/TRE-MYC/BCR^HEL/sHEL jaw tumors; conditions: mouse, in vivo
# Method: as §3
# [12] = daily intravenous injections for 7 days
smiles,measurement,setting,value
COc1cc(Nc2ncc(F)c(Nc3ccc4c(n3)NC(=O)C(C)(C)O4)n2)cc(OC)c1OC [R406],survival of tumor-bearing mice,[1],does not extend the survival
same,viability of Raji cells (MTS),Raji cells [2],dose response decrease in viability
same,"apoptosis (subdiploid population, propidium iodide)",Raji cells [3],undergo apoptosis
same,cell viability (MTS),[4],susceptible
COc1cc(Nc2ncc(F)c(Nc3ccc4c(n3)N(COP(=O)(O)O)C(=O)C(C)(C)O4)n2)cc(OC)c1OC [R788],survival versus untreated counterparts,[5],at least twice as long
same,survival of tumor-bearing mice,[1],"perished at the same rate and time frame as their untreated, tumor-bearing counterparts"
same,survival versus untreated counterparts,[6]; transient 7 day treatment,twice as long
same,tumor burden (number of cells in lymph nodes and spleens),"[6]; treated for 7 days, starting 24 days after transplant",significantly decreased the tumor burden
O=P1(N(CCCl)CCCl)NCCCO1 (stereo not shown) [cyclophosphamide],remission,[7]; after seven-day treatment,brief remission
same,survival compared with untreated tumor-bearing mice,"[7]; after seven-day treatment, observed 100 days","died more rapidly than did untreated, tumor-bearing mice"
same,response of transplanted Eμ-MYC/BCR^HEL/sHEL tumors to drug,[7]; [12],responded
same,response of transplanted MMTV-rtTA/TRE-MYC/BCR^HEL/sHEL jaw tumors to drug,[8],responded
same,tumor regression,Eμ-MYC tumors; [12],tumor regression in all animals
same,"response of transplanted Eμ-MYC tumors to drug (tumor burden, lymph nodes and spleens)","Eμ-MYC tumors; daily intravenous injections for 7 days, analysed 24 hours after last injection",strong response
same,"general cytotoxicity (reduction in T-cells, myeloid cells, non-transgenic B-cells)","Eμ-MYC tumors; tumor-bearing mice, 7 days treatment",more general cytotoxicity
same,response of transplanted Eμ-MYC/BCR^HEL tumors to drug,Eμ-MYC/BCR^HEL tumors,responded
same,remission,[9],brief remission
same,survival compared with untreated tumor-bearing mice,[9],"died more rapidly than did untreated, tumor-bearing mice"
same,response of transplanted MMTV-rtTA/TRE-MYC/BCR^HEL/sHEL tumors to drug,[9]; iv,responded
same,remission,[10],brief remission
same,survival compared with untreated tumor-bearing mice,[10],"died more rapidly than did untreated, tumor-bearing mice"
same,response of transplanted MMTV-rtTA/TRE-MYC/BCR^HEL/sHEL tumors to drug,[10]; iv,responded
same,"general cytotoxicity (reduction in T cells, myeloid cells, non-transgenic B cells)",[11],more general cytotoxicity
same,response of the transplanted tumors to drug,[11],strong response
same,tumor regression,[11],tumor regression in each instance
